The text below walks through data of patent US20150284335A1, “Benzoimidazoles as prolyl hydroxylase inhibitors” (Janssen Pharmaceutica NV, priority 2008, published 2015).

The test system of one test is Hep-3B cells. Description: Cellular assay: EPO secretion in Hep-3B cells. It is filed as cell-based, human. The following applies: final compound concentration 100 μM, 24 hours, percent of EPO secretion relative to assay control compound.
Another test addresses T1, PHD2181-417 (Homo sapiens, UniProt Q9GZT9).
T1 construct: histidine tag (N, cleaved yes); Smt3 (SUMO) tag (N, cleaved yes); made in house; host or cells: E. coli BL21 (pBAD vector)
The experiment in a line: PHD enzyme activity assay ([14C]-succinic acid production).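 Note: enzyme expressed in E. coli BL21, assayed in Tris-HCl pH 7.5 with catalase, DTT and ascorbate, [14C]-succinic acid beta-counted after DNP precipitation of residual 2-oxoglutarate.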 It is filed as biochemical. To be noted: inhibition of PHD2181-417 activity; HIF-1α peptide 10 μM, [5-14C]-2-oxoglutaric acid, 10 minutes; read-out: Enzyme pIC50 (converted).

T1 sequence (Q9GZT9 181-417): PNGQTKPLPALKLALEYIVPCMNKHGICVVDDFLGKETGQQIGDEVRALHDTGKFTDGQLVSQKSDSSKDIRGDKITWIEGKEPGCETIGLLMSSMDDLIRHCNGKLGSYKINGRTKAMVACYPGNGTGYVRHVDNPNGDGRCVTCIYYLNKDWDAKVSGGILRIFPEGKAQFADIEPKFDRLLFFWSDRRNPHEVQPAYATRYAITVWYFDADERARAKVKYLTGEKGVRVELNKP

With `O=C(O)CNC(=O)c1nc2cc(NC(=O)c3ccccc3)ccc2[nH]1` [Example 29, [(5-Benzoylamino-1H-benzoimidazole-2-carbonyl)-amino]-acetic acid], the “Cellular % EPO Stimulation” value in the test on Hep-3B cells is reported as −3.30%. Besides, at PHD2181-417, the IC50 was 63.1 µM.

On to `COc1cccc(-c2ccc3[nH]c(C(=O)NCC(=O)O)nc3c2)c1` [Example 23, {[5-(3-Methoxy-phenyl)-1H-benzoimidazole-2-carbonyl]-amino}-acetic acid], for which, in the test on Hep-3B cells, the “Cellular % EPO Stimulation” value worked out at 1.40%. The IC50 at PHD2181-417 is 39.8 µM.

Regarding `O=C(O)c1cnn(-c2nc3cc(Cl)c(Cl)cc3[nH]2)c1` [Example 33, 1-(5,6-Dichloro-1H-benzoimidazol-2-yl)-1H-pyrazole-4-carboxylic acid], the “Cellular % EPO Stimulation” value in the test with Hep-3B cells is recorded as 168.46%. Further, the IC50 at PHD2181-417 was 0.1 µM.

`CCCOc1ccc(-c2ccc3[nH]c(C(=O)NCC(=O)O)nc3c2)cc1` [Example 26, {[5-(4-Propoxy-phenyl)-1H-benzoimidazole-2-carbonyl]-amino}-acetic acid]: the “Cellular % EPO Stimulation” value with Hep-3B cells amounted to 2.50%. For the same compound, the IC50 at PHD2181-417 was 15.8 µM.

As for `O=C(O)CNC(=O)c1nc2cc(-c3cccc(OCc4ccccc4Cl)c3)ccc2[nH]1` [Example 14, ({5-[3-(2-Chloro-benzyloxy)-phenyl]-1H-benzoimidazole-2-carbonyl}-amino)-acetic acid], the “Cellular % EPO Stimulation” value in the test on Hep-3B cells is −3.80%. Further, on PHD2181-417, the IC50 is 2.51 µM.
